Results on five compounds are retold here after ChEMBL document CHEMBL3351382, “New thiophene-1,2,4-triazole-5(3)-ones: highly bioactive thiosemicarbazides, structures of Schiff bases and triazole-thiols” (Eur J Med Chem, 2014).

In brackets after ≈: the same amount, converted by molar mass. Activity calls are given as the source filed them. No cut-off for these calls is given here.

As a reminder, the MIC is the lowest concentration found to suppress growth.

Data set [1] concerns Pseudomonas aeruginosa. Put plainly: Antimicrobial activity against Pseudomonas aeruginosa ATCC 10145 after 24 hrs by agar dilution method. Type of data set: functional, organism-based. For orientation: In agar dilution, organisms are placed on agar that contains the substance at set levels.
Data set [2] is described as follows: Antioxidant activity assessed as trolox equivalent of ferric ion reducing activity using fe3+-TPTZ at 200 ug/ml by FRAP assay. In kind it is physicochemical.
Data set [3] concerns Yersinia pseudotuberculosis. The following applies: ATCC 911.
The nature of data set [4]: Antioxidant activity assessed as DPPH scavenging activity at 10 ug/ml after 60 mins by spectrophotometry. Type of data set: physicochemical. The following applies: 1 h.
The subject of data set [5] is Escherichia coli. Put plainly: Antimicrobial activity against Escherichia coli ATCC 25922 after 24 hrs by agar dilution method. Type of data set: functional, organism-based.
In data set [6] the test system is Candida albicans. The data set is described as follows: Antimicrobial activity against Candida albicans ATCC 60193 after 24 hrs by agar dilution method. In kind it is functional, organism-based.
Data set [7] deals with Mycolicibacterium smegmatis. The data set is described as follows: Antimicrobial activity against Mycobacterium smegmatis ATCC 607 after 24 hrs by agar dilution method. Type of data set: functional.
The test system of data set [8] is Staphylococcus aureus. The data set is described as follows: Antimicrobial activity against Staphylococcus aureus ATCC 25923 after 24 hrs by agar dilution method. Type of data set: functional.
Data set [9] relates to Listeria monocytogenes. The data set is described as follows: Antimicrobial activity against Listeria monocytogenes ATCC 43251 after 24 hrs by agar dilution method. Type of data set: functional, organism-based.
Data set [10] relates to Enterococcus faecalis. The data set is described as follows: Antimicrobial activity against Enterococcus faecalis ATCC 29212 after 24 hrs by agar dilution method. In kind it is functional, organism-based.
For data set [11], the system named is Saccharomyces cerevisiae. The data set is described as follows: Antimicrobial activity against Saccharomyces cerevisiae RSKK 251 after 24 hrs by agar dilution method. In kind it is functional, organism-based.
For data set [12], the system named is Bacillus cereus. The data set is described as follows: Antimicrobial activity against Bacillus cereus 709 Roma after 24 hrs by agar dilution method. Type of data set: functional.
Data set [13] in a line: Antioxidant activity assessed as DPPH scavenging activity at 200 ug/ml after 60 mins by spectrophotometry. Type of data set: physicochemical. As to conditions: 1 h. (Loss of DPPH colour is used to gauge radical scavenging.)

Consider `Nn1c(Cc2cccs2)nn(CC(=O)NNC(=S)Nc2ccccc2)c1=O`, for which the MIC entry in [1], in [3], in data set [5], in data set [6], in [9] and in data set [10] was “inactive” in each case. Further, the MIC result in data set [11] was “inactive”. Moreover, the Activity in data set [2] was 584 µM; in data set [4], 83.4%. In addition, the MIC in data set [7] (ATCC 607, 24 h) was found to be 1260 µg/mL (≈ 3.13 mM); in data set [8] (ATCC 25923, 24 h), 2520 µg/mL (≈ 6.26 mM); in [12], 5050 µg/mL (≈ 12.5 mM).
As to `Nn1c(Cc2cccs2)nn(CC(=O)NNC(=S)Nc2ccc(F)cc2)c1=O`, the MIC entry in [1], in [3], in data set [5], in [6], in [7] and in data set [9] was “inactive” throughout. Moreover, the MIC result in data set [10], in [11] and in [12] was “inactive” throughout. Also, the Activity in [2] was found to be 503 µM; in data set [4], 69%. In [8] (ATCC 25923, 24 h), the minimal inhibitory concentration (MIC) is 2410 µg/mL (≈ 5.72 mM).
For `Cc1ccc(NC(=S)NNC(=O)Cn2nc(Cc3cccs3)n(N)c2=O)cc1`, the MIC result in data set [1], in [3], in [5], in data set [6], in data set [9] and in data set [10] was “inactive” in each case. The MIC result in data set [11] and in data set [12] was “inactive” each time. Besides, the values for the Activity in [2] and in data set [4] were 1257 µM and 88.2%, respectively. Further, the minimum inhibitory concentration (MIC) in data set [7] (ATCC 607, 24 h) was found to be 1610 µg/mL (≈ 3.86 mM); in data set [8] (ATCC 25923, 24 h) it was 3220 µg/mL (≈ 7.72 mM).
Regarding `Nn1c(Cc2cccs2)nn(Cc2nnc(S)n2-c2ccccc2)c1=O`, the Activity was 62.7% in data set [13] and 11 µM in data set [2]. In addition, the MIC entry in data set [1], in data set [3], in data set [5], in data set [6], in [7] and in [8] was “inactive” in each case. Further, the MIC entry in data set [9], in data set [10], in [11] and in [12] was “inactive” in each case.
On to `Nn1c(Cc2cccs2)nn(CC(=O)NNC(=S)Nc2ccc(Br)cc2)c1=O`, for which the MIC entry in [1], in data set [3], in [5], in data set [6], in data set [9] and in [10] was “inactive” throughout. Also, the MIC entry in data set [11] is “inactive”. The Activity was 635 µM in data set [2] and 84.4% in data set [4]. For the same compound, the minimal inhibitory concentration (MIC) in [7] (ATCC 607, 24 h) was determined as 950 µg/mL (≈ 1.97 mM); in data set [8] (ATCC 25923, 24 h), 950 µg/mL (≈ 1.97 mM); in [12] it was 950 µg/mL (≈ 1.97 mM).
